Laboratory results published in PubChem BioAssay (NCI).
Values joined by “and” are separate entries in the source; they are usually repeats but may differ in a detail not shown here. Equal entries are not always repeated.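 48-hour exposure; five concentrations; linearly interpolated endpoints. At the GI50, growth is halved. The concentration for full growth arrest is given as TGI.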 Where a SMILES comes first, the peptide text is derived from it. [ ]: non-standard residue; d: D form. The star is where a group is joined. ξ: configuration not given here. NMeF = CN[CH](Cc1ccccc1)C(=O)O; ξNMeF = CNC(Cc1ccccc1)C(=O)O; NMeV = CN[CH](C(=O)O)C(C)C; Boc = CC(C)(C)OC(=O)*; OBn = c1ccc(CO*)cc1

How the values were obtained:
Experiment in all cases: growth of human tumour cells (NCI), 48 h
HCT-116 colon = test system: HCT-116 colon
NCI-H460 lung = test system: NCI-H460 lung
OVCAR-8 ovarian = test system: OVCAR-8 ovarian
CAKI-1 renal = test system: CAKI-1 renal
NCI-H522 lung = test system: NCI-H522 lung
OVCAR-3 ovarian = test system: OVCAR-3 ovarian
HT29 colon = test system: HT29 colon
SN12C renal = test system: SN12C renal
SNB-75 CNS = test system: SNB-75 CNS
786-0 renal = test system: 786-0 renal
U251 CNS = test system: U251 CNS
K-562 leukemia = test system: K-562 leukemia
M14 melanoma = test system: M14 melanoma
UO-31 renal = test system: UO-31 renal
PC-3 prostate = test system: PC-3 prostate

Structure (SMILES) | TGI (HCT-116 colon) [µM] | TGI (NCI-H460 lung) [µM] | TGI (OVCAR-8 ovarian) [µM] | TGI (CAKI-1 renal) [µM] | TGI (NCI-H522 lung) | TGI (OVCAR-3 ovarian) [µM] | TGI (HT29 colon) | TGI (SN12C renal) [µM] | TGI (SNB-75 CNS) [µM] | TGI (786-0 renal) [µM] | TGI (U251 CNS) [µM] | TGI (K-562 leukemia) | TGI (M14 melanoma) [µM] | TGI (UO-31 renal) [µM] | TGI (PC-3 prostate) [µM] | GI50 (OVCAR-3 ovarian) | GI50 (SN12C renal) | GI50 (K-562 leukemia)
COc1cccc(NC(=O)CSc2nnc(Cc3ccccc3)o2)c1 | > 100 | > 100 | > 100 | > 100 | > 100 µM | > 100 | > 100 µM | > 100 | > 100 | > 100 | > 100 | > 100 µM | > 100 | > 100 |  |  |  | 
CCN(CC)C(=O)CCn1cc(F)c(=O)[nH]c1=O | > 100 | > 100 | > 100 |  | > 100 µM | > 100 | > 100 µM | > 100 | > 100 | > 100 | > 100 | > 100 µM | > 100 | > 100 |  |  |  | 
COCn1cc(C2=C(C)C(=O)C(C)=C(C)C2=O)cn1 | 36.7 | > 100 | 36.8 | > 100 |  | 40 | > 100 µM | > 100 | > 100 | 32.2 |  | 42.6 µM | > 100 | > 100 | > 100 |  |  | 
O=C1CSC(c2ccccc2O)N1c1ccc2c(c1)Oc1c(Cl)c3c(c(Cl)c1=N2)Oc1cc(N2C(=O)CSC2c2ccccc2O)ccc1N=3 (configuration not stated) | > 100 | > 100 | > 100 | > 100 | 52 µM | > 100 | > 100 µM |  |  | > 100 | 65 | > 100 µM | > 100 | > 100 | > 100 |  |  | 
CC(C)[C@@H](C(=O)N(C)[C@H](C(=O)N1CCC[C@H]1C(=O)OCc1ccccc1)C(C)C)N(C)C(=O)C(Cc1ccccc1)N(C)C(=O)[C@H](NC(=O)OC(C)(C)C)C(C)C (some centres not stated) (Boc-[dV][ξNMeF][NMeV][NMeV]P-OBn) | > 31.6 | > 31.6 | > 31.6 | > 31.6 | > 100 µM | > 67.2 | > 31.6 µM | > 100 | > 100 | > 69.7 | > 31.6 | > 31.6 µM | > 100 | > 31.6 |  |  |  | 
C=C(COCO)C(C)=O | 26.7 | 48.2 | 24.6 | 5.42 | 3.75 µM | 26.6 | 35 µM | 33 | 30.5 | 25.6 | 47.2 | > 27 µM | 26.8 | 25.7 | 34.8 |  |  | 
CC(C)C(NC(=O)OC(C)(C)C)C(=O)N(C)C(Cc1ccccc1)C(=O)N(C)C(C(=O)OCc1ccccc1)C(C)C (stereo not drawn) (Boc-Val-[NMeF]-[NMeV]-OBn; configuration not given here) | > 100 | > 100 | > 100 |  | 29.7 µM and 69 µM | > 100 | 32.3 µM and > 100 µM | > 100 |  | > 100 | > 100 | 95.6 µM and > 100 µM | > 100 | > 100 |  | 35.5 µM and > 100 µM | 44.3 µM and > 100 µM | 12.1 µM and 51.4 µM
Cn1c(=O)c2ccccc2[n+]2c(-c3cccc([N+](=O)[O-])c3)csc12 | > 100 | > 100 | > 100 | > 100 | > 100 µM | > 100 | > 100 µM | > 100 | 82.2 | > 100 | > 100 | > 100 µM | > 100 | > 100 | > 100 |  |  | 
C=CCCCCCCCCCP(=O)(c1ccccc1)c1ccc2c(c1)OCCOCCOCCOCCO2 (configuration not stated) | 25.1 | 26.4 | 30.3 | > 100 | 24.5 µM | 19.7 | 24.8 µM | 32.4 | 33.1 | 29.8 | 29.3 | 24.6 µM | > 100 | 22.7 |  |  |  | 
O[C@@]1(C#Cc2ccc3c(c2)OCO3)CCC[C@H]1NCc1ccccc1 |  | 69 | 59 | > 100 | 29.8 µM | 47.4 | 44.9 µM |  | 89.8 | 31.3 | 59.6 | 41.5 µM | 29.2 | 43.9 | 51.3 |  |  | 
S=C1NC2=C(CSC/C2=C\c2ccc(Cl)cc2)C(c2ccc(Cl)cc2)N1 (configuration not stated) | > 100 | > 100 | > 100 | > 100 | > 100 µM | > 100 | > 100 µM | > 100 |  | 84 | > 100 | > 100 µM |  | > 100 | > 100 |  |  | 
